Assay results as given in PubChem BioAssay (NCI).
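Where inhibition never reached the appropriate level, the endpoint shown equals the highest concentration tested. Otherwise, values were interpolated linearly from a five-concentration, 48-hour dose response in 96-well plates. At the GI50, growth is halved. Definition used: TGI = concentration required for complete inhibition of growth.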

Experiments:
Assay in all cases: NCI tumour cell line growth inhibition, 48 h
SR leukemia = test system: SR leukemia
LOX IMVI melanoma = test system: LOX IMVI melanoma
SF-539 CNS = test system: SF-539 CNS
KM12 colon = test system: KM12 colon
HT29 colon = test system: HT29 colon
HCT-116 colon = test system: HCT-116 colon
UO-31 renal = test system: UO-31 renal
MDA-MB-231 breast = test system: MDA-MB-231 breast
NCI/ADR-RES ovarian = test system: NCI/ADR-RES ovarian
ACHN renal = test system: ACHN renal
SK-MEL-5 melanoma = test system: SK-MEL-5 melanoma
MDA-MB-468 breast = test system: MDA-MB-468 breast
OVCAR-8 ovarian = test system: OVCAR-8 ovarian
T-47D breast = test system: T-47D breast
RXF 393 renal = test system: RXF 393 renal
UACC-257 melanoma = test system: UACC-257 melanoma
HCT-15 colon = test system: HCT-15 colon
U251 CNS = test system: U251 CNS
OVCAR-3 ovarian = test system: OVCAR-3 ovarian
IGROV1 ovarian = test system: IGROV1 ovarian
SNB-75 CNS = test system: SNB-75 CNS
SNB-19 CNS = test system: SNB-19 CNS
SW-620 colon = test system: SW-620 colon
HOP-92 NSCLC = test system: HOP-92 NSCLC
SK-OV-3 ovarian = test system: SK-OV-3 ovarian
SN12C renal = test system: SN12C renal
COLO 205 colon = test system: COLO 205 colon
RPMI-8226 leukemia = test system: RPMI-8226 leukemia
A498 renal = test system: A498 renal
SF-268 CNS = test system: SF-268 CNS
CCRF-CEM leukemia = test system: CCRF-CEM leukemia
DU-145 prostate = test system: DU-145 prostate
786-0 renal = test system: 786-0 renal
HCC-2998 colon = test system: HCC-2998 colon
HS 578T breast = test system: HS 578T breast
MALME-3M melanoma = test system: MALME-3M melanoma
MOLT-4 leukemia = test system: MOLT-4 leukemia
A549 NSCLC = test system: A549 NSCLC
PC-3 prostate = test system: PC-3 prostate
SF-295 CNS = test system: SF-295 CNS
MCF7 breast = test system: MCF7 breast
NCI-H23 lung = test system: NCI-H23 lung
NCI-H460 lung = test system: NCI-H460 lung
EKVX NSCLC = test system: EKVX NSCLC
CAKI-1 renal = test system: CAKI-1 renal
NCI-H522 lung = test system: NCI-H522 lung
MDA-MB-435 = test system: MDA-MB-435
SK-MEL-28 melanoma = test system: SK-MEL-28 melanoma
TK-10 renal = test system: TK-10 renal
UACC-62 melanoma = test system: UACC-62 melanoma
OVCAR-5 ovarian = test system: OVCAR-5 ovarian
HOP-62 NSCLC = test system: HOP-62 NSCLC
HL-60(TB) leukemia = test system: HL-60(TB) leukemia
BT-549 breast = test system: BT-549 breast
OVCAR-4 ovarian = test system: OVCAR-4 ovarian
M14 melanoma = test system: M14 melanoma
K-562 leukemia = test system: K-562 leukemia
SK-MEL-2 melanoma = test system: SK-MEL-2 melanoma
NCI-H226 lung = test system: NCI-H226 lung

SMILES: O=C(c1ccc(Cl)cc1)C1[C@H](c2ccccc2Cl)[C@@H](c2ccccc2)NC12C(=O)Nc1ccccc12 (stereo partly drawn)
- GI50 (SR leukemia): 14.7 µM
- TGI (SR leukemia): 53.5 µM
- GI50 (LOX IMVI melanoma): 13.2 µM
- TGI (LOX IMVI melanoma): 27.3 µM
- GI50 (SF-539 CNS): 18.1 µM
- TGI (SF-539 CNS): 36 µM
- GI50 (KM12 colon): 20.2 µM
- TGI (KM12 colon): 58.1 µM
- GI50 (HT29 colon): 14.6 µM
- TGI (HT29 colon): 35 µM
- GI50 (HCT-116 colon): 14.5 µM
- TGI (HCT-116 colon): 29.6 µM
- GI50 (UO-31 renal): 16.4 µM
- TGI (UO-31 renal): > 100 µM
- GI50 (MDA-MB-231 breast): 15 µM
- TGI (MDA-MB-231 breast): 40.8 µM
- GI50 (NCI/ADR-RES ovarian): 14.9 µM
- TGI (NCI/ADR-RES ovarian): 35.8 µM
- GI50 (ACHN renal): 20.9 µM
- TGI (ACHN renal): 71.8 µM
- GI50 (SK-MEL-5 melanoma): 15.2 µM
- TGI (SK-MEL-5 melanoma): 29.3 µM
- GI50 (MDA-MB-468 breast): 3.54 µM
- TGI (MDA-MB-468 breast): 20.6 µM
- GI50 (OVCAR-8 ovarian): 22 µM
- TGI (OVCAR-8 ovarian): 72.3 µM
- GI50 (T-47D breast): 18.3 µM
- TGI (T-47D breast): 74.1 µM
- GI50 (RXF 393 renal): 13.2 µM
- TGI (RXF 393 renal): 34.3 µM
- GI50 (UACC-257 melanoma): 23.3 µM
- TGI (UACC-257 melanoma): 79 µM
- GI50 (HCT-15 colon): 25.3 µM
- TGI (HCT-15 colon): > 100 µM
- GI50 (U251 CNS): 23 µM
- TGI (U251 CNS): 64.8 µM
- GI50 (OVCAR-3 ovarian): 12.5 µM
- TGI (OVCAR-3 ovarian): 35 µM
- GI50 (IGROV1 ovarian): 26.1 µM
- TGI (IGROV1 ovarian): > 100 µM
- GI50 (SNB-75 CNS): 11 µM
- TGI (SNB-75 CNS): 71.3 µM
- GI50 (SNB-19 CNS): 30 µM
- TGI (SNB-19 CNS): > 100 µM
- GI50 (SW-620 colon): 17.6 µM
- TGI (SW-620 colon): 51.2 µM
- GI50 (HOP-92 NSCLC): 17.7 µM
- TGI (HOP-92 NSCLC): 58.4 µM
- GI50 (SK-OV-3 ovarian): 20.8 µM
- TGI (SK-OV-3 ovarian): 82.7 µM
- GI50 (SN12C renal): 13.7 µM
- TGI (SN12C renal): 28.4 µM
- GI50 (COLO 205 colon): 16.3 µM
- TGI (COLO 205 colon): 29.9 µM
- GI50 (RPMI-8226 leukemia): 25.7 µM
- TGI (RPMI-8226 leukemia): 91.3 µM
- GI50 (A498 renal): 20.8 µM
- TGI (A498 renal): 60.1 µM
- GI50 (SF-268 CNS): 23.2 µM
- TGI (SF-268 CNS): > 100 µM
- GI50 (CCRF-CEM leukemia): 27.2 µM
- TGI (CCRF-CEM leukemia): 95 µM
- GI50 (DU-145 prostate): 17.1 µM
- TGI (DU-145 prostate): 51.2 µM
- GI50 (786-0 renal): 20.5 µM
- TGI (786-0 renal): 51.6 µM
- GI50 (HCC-2998 colon): 19.1 µM
- TGI (HCC-2998 colon): 51.7 µM
- GI50 (HS 578T breast): 12 µM
- TGI (HS 578T breast): 34.6 µM
- GI50 (MALME-3M melanoma): 15.7 µM
- TGI (MALME-3M melanoma): 34.8 µM
- GI50 (MOLT-4 leukemia): 20.3 µM
- TGI (MOLT-4 leukemia): 74.9 µM
- GI50 (A549 NSCLC): 24.9 µM
- TGI (A549 NSCLC): > 100 µM
- GI50 (PC-3 prostate): 14.3 µM
- TGI (PC-3 prostate): 72.9 µM
- GI50 (SF-295 CNS): 18.2 µM
- TGI (SF-295 CNS): 49.7 µM
- GI50 (MCF7 breast): 16.2 µM
- TGI (MCF7 breast): 58.4 µM
- GI50 (NCI-H23 lung): 18.3 µM
- TGI (NCI-H23 lung): 52 µM
- GI50 (NCI-H460 lung): 17.8 µM
- TGI (NCI-H460 lung): 36.8 µM
- GI50 (EKVX NSCLC): 23.7 µM
- TGI (EKVX NSCLC): > 100 µM
- GI50 (CAKI-1 renal): 18.9 µM
- TGI (CAKI-1 renal): > 100 µM
- GI50 (NCI-H522 lung): 15.2 µM
- TGI (NCI-H522 lung): 46.3 µM
- GI50 (MDA-MB-435): 12.7 µM
- TGI (MDA-MB-435): 28.8 µM
- GI50 (SK-MEL-28 melanoma): 18.2 µM
- TGI (SK-MEL-28 melanoma): 40.3 µM
- GI50 (TK-10 renal): 23.4 µM
- TGI (TK-10 renal): 87.9 µM
- GI50 (UACC-62 melanoma): 12.6 µM
- TGI (UACC-62 melanoma): 27.8 µM
- GI50 (OVCAR-5 ovarian): 18.5 µM
- TGI (OVCAR-5 ovarian): 66.7 µM
- GI50 (HOP-62 NSCLC): 17.4 µM
- TGI (HOP-62 NSCLC): 61.8 µM
- GI50 (HL-60(TB) leukemia): 17 µM
- TGI (HL-60(TB) leukemia): 58.8 µM
- GI50 (BT-549 breast): 16.2 µM
- TGI (BT-549 breast): 48.5 µM
- GI50 (OVCAR-4 ovarian): 25.6 µM
- TGI (OVCAR-4 ovarian): > 100 µM
- GI50 (M14 melanoma): 16.3 µM
- TGI (M14 melanoma): 43.1 µM
- GI50 (K-562 leukemia): 21.7 µM
- TGI (K-562 leukemia): > 100 µM
- GI50 (SK-MEL-2 melanoma): 14.8 µM
- TGI (SK-MEL-2 melanoma): 32.1 µM
- GI50 (NCI-H226 lung): 17.6 µM
- TGI (NCI-H226 lung): 47.4 µM
